Assay results taken from US8852554B2, “Radiolabelled PDE10 ligands” (Janssen Pharmaceutica NV, priority 2009, dated 2014).
Values joined by “and” are separate entries in the source; they are usually repeats but may differ in a detail not shown here. Equal entries are not always repeated.

Experiment: Biodistribution studies of the 18F tracers in rats
Type: in vivo, male Wistar rats
Settings: rat, i.v.
Description: Biodistribution studies were carried out in healthy male Wister rats (body weight 200-500 g) at 2 min, 30 min and 60 min post injection (p.i.) (n=3/time point). For |^18F|B-4 only the 2 min and 30 min time points were studied. […] Blood and major organs were collected in tared tubes and weighed. The radioactivity in blood, organs and other body parts was measured using an automated gamma counter. The distribution of radioactivity in different parts of the body at different time points p.i. of the tracer was calculated and expressed as percentage of injected dose (% ID), and as percentage of injected dose per gram tissue (% ID/g) for the selected organs. % ID is calculated as cpm in organ/total cpm recovered. For calculation of total radioactivity in blood, blood mass was assumed to be 7% of the body mass.

## Cc1cccc(COc2ccc(-c3nn(CC[18F])cc3-c3ccncc3)cc2)n1 [[^18F]B-1]
30 min p.i.
  % ID/g normalized for body weight, Cerebellum: 0.041 ± 0.01 % ID/g × body wt. in kg
  % ID/g normalized for body weight, Cerebrum + Cerebellum: 0.04 ± 0.01 % ID/g × body wt. in kg
  % ID/g normalized for body weight, Cerebrum total: 0.042 ± 0.01 % ID/g × body wt. in kg
  % ID/g normalized for body weight, Cortex: 0.057 ± 0.01 % ID/g × body wt. in kg
  % ID/g normalized for body weight, Heart: 0.07 ± 0.01 % ID/g × body wt. in kg
  % ID/g normalized for body weight, Hippocampus: 0.027 ± 0.01 % ID/g × body wt. in kg
  % ID/g normalized for body weight, Kidneys: 0.17 ± 0.01 % ID/g × body wt. in kg
  % ID/g normalized for body weight, Liver: 1.02 ± 0.13 % ID/g × body wt. in kg
  % ID/g normalized for body weight, Lungs: 0.08 ± 0.02 % ID/g × body wt. in kg
  % ID/g normalized for body weight, Rest of cerebrum: 0.039 ± 0.01 % ID/g × body wt. in kg
  % ID/g normalized for body weight, Spleen + Pancreas: 0.11 ± 0.02 % ID/g × body wt. in kg
  % ID/g normalized for body weight, Striatum: 0.070 ± 0.01 % ID/g × body wt. in kg
  % ID/g, Blood: 0.12 ± 0.01 % ID/g
  % ID/g, Cerebellum: 0.145 ± 0.020 % ID/g
  % ID/g, Cerebrum + Cerebellum: 0.15 ± 0.02 % ID/g
  % ID/g, Cerebrum total: 0.148 ± 0.014 % ID/g
  % ID/g, Cortex: 0.204 ± 0.016 % ID/g
  % ID/g, Heart: 0.24 ± 0.03 % ID/g
  % ID/g, Hippocampus: 0.096 ± 0.012 % ID/g
  % ID/g, Kidneys: 0.61 ± 0.11 % ID/g
  % ID/g, Liver: 3.72 ± 0.87 % ID/g
  % ID/g, Lungs: 0.27 ± 0.04 % ID/g
  % ID/g, Rest of cerebrum: 0.138 ± 0.013 % ID/g
  % ID/g, Spleen + Pancreas: 0.39 ± 0.04 % ID/g
  % ID/g, Striatum: 0.250 ± 0.029 % ID/g
  radioactivity concentration, all studied brain regions: ≤ 0.07 % ID/g corrected for body weight
  striatum/blood ratio (from % ID/g normalized for body weight): 2.05
  striatum/cerebellum ratio (from % ID/g normalized for body weight): 1.72
  striatum/hippocampus ratio (from % ID/g normalized for body weight): 2.59
60 min p.i.
  % ID in liver and intestines: 54 % ID
  % ID in the urinary system: ~2.6 % ID
  % ID, Blood: 2.2 % ID and 2.16 ± 0.4 % ID
  % ID, Carcass: 23.68 ± 3.9 % ID
  % ID, Cerebellum: 0.023 ± 0.005 % ID
  % ID, Cerebrum total: 0.145 ± 0.032 % ID
  % ID, Cortex: 0.018 ± 0.004 % ID
  % ID, Heart: 0.16 ± 0.0 % ID
  % ID, Hippocampus: 0.005 ± 0.001 % ID
  % ID, Intestines: 19.61 ± 1.5 % ID
  % ID, Kidneys: 1.38 ± 0.1 % ID
  % ID, Liver: 34.49 ± 8.0 % ID
  % ID, Lungs: 0.26 ± 0.1 % ID
  % ID, Rest of cerebrum: 0.116 ± 0.027 % ID
  % ID, Spleen + Pancreas: 0.43 ± 0.1 % ID
  % ID, Stomach: 17 % ID and 16.74 ± 4.6 % ID
  % ID, Striatum: 0.006 ± 0.002 % ID
  % ID, Urine: 1.22 ± 0.2 % ID
  % ID/g normalized for body weight, Blood: 0.03 ± 0.01 % ID/g × body wt. in kg
  % ID/g normalized for body weight, Cerebellum: 0.025 ± 0.01 % ID/g × body wt. in kg
  % ID/g normalized for body weight, Cerebrum + Cerebellum: 0.03 ± 0.01 % ID/g × body wt. in kg
  % ID/g normalized for body weight, Cerebrum total: 0.033 ± 0.01 % ID/g × body wt. in kg
  % ID/g normalized for body weight, Cortex: 0.036 ± 0.01 % ID/g × body wt. in kg
  % ID/g normalized for body weight, Heart: 0.05 ± 0.01 % ID/g × body wt. in kg
  % ID/g normalized for body weight, Hippocampus: 0.023 ± 0.02 % ID/g × body wt. in kg
  % ID/g normalized for body weight, Kidneys: 0.15 ± 0.01 % ID/g × body wt. in kg
  % ID/g normalized for body weight, Liver: 0.81 ± 0.13 % ID/g × body wt. in kg
  % ID/g normalized for body weight, Lungs: 0.05 ± 0.02 % ID/g × body wt. in kg
  % ID/g normalized for body weight, Rest of cerebrum: 0.034 ± 0.01 % ID/g × body wt. in kg
  % ID/g normalized for body weight, Spleen + Pancreas: 0.08 ± 0.02 % ID/g × body wt. in kg
  % ID/g normalized for body weight, Striatum: 0.051 ± 0.01 % ID/g × body wt. in kg
  % ID/g, Blood: 0.10 ± 0.02 % ID/g
  % ID/g, Cerebellum: 0.079 ± 0.021 % ID/g
  % ID/g, Cerebrum + Cerebellum: 0.10 ± 0.03 % ID/g
  % ID/g, Cerebrum total: 0.105 ± 0.035 % ID/g
  % ID/g, Cortex: 0.113 ± 0.031 % ID/g
  % ID/g, Heart: 0.15 ± 0.04 % ID/g
  % ID/g, Hippocampus: 0.074 ± 0.050 % ID/g
  % ID/g, Kidneys: 0.46 ± 0.02 % ID/g
  % ID/g, Liver: 2.53 ± 0.23 % ID/g
  % ID/g, Lungs: 0.16 ± 0.05 % ID/g
  % ID/g, Rest of cerebrum: 0.107 ± 0.030 % ID/g
  % ID/g, Spleen + Pancreas: 0.26 ± 0.07 % ID/g
  % ID/g, Striatum: 0.162 ± 0.042 % ID/g
  striatum/blood ratio (from % ID/g normalized for body weight): 1.66
  striatum/cerebellum ratio (from % ID/g normalized for body weight): 2.06
  striatum/hippocampus ratio (from % ID/g normalized for body weight): 2.24
At all time points examined
  % ID in the carcass: ~28 % ID
Biodistribution 2-60 min p.i.
  maximum striatum-to-cerebellum ratio: about 2
